Measured values as given in article PMC6657685, “Cloning, purification, and characterization of GH3 β-glucosidase, MtBgl85, from Microbulbifer thermotolerans DAU221” (PeerJ, 2019).

Biological target: T1, MtBgl85 (Microbulbifer thermotolerans, UniProt Z9ZKX7DI54)
T1 construct: signal peptide (1-25, predicted) removed; N-terminal His6 tag (pCold I); expressed in E. coli BL21 (DE3); precursor 772 residues, mature 747 residues, 81,924 Da; about 85 kDa on SDS-PAGE; monomer
T1 sequence (Z9ZKX7DI54 26-772): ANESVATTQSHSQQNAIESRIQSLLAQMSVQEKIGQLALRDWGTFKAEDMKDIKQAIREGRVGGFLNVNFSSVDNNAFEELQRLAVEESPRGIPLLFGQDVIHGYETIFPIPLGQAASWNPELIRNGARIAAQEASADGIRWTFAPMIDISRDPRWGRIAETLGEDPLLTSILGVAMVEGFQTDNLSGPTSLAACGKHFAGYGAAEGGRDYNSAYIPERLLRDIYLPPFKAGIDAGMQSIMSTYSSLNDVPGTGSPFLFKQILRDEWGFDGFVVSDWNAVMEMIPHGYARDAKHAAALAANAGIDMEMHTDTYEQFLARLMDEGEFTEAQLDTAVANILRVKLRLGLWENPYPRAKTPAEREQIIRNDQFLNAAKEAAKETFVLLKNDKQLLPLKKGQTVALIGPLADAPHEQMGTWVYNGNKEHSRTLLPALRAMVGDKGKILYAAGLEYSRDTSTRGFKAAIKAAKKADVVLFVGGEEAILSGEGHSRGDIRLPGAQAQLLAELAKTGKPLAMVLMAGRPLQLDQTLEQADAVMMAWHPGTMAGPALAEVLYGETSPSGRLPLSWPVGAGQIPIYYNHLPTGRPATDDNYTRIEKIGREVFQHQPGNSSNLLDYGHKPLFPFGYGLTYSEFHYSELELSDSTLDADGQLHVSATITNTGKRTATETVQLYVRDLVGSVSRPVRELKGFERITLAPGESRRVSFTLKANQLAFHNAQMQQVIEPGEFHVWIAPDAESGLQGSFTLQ
Assay: residual activity with pNPβG
Type: biochemical
Settings: read-out: % residual activity at 10 mM

Compound: OC[C@H]1OC(O)[C@H](O)[C@@H](O)[C@@H]1O (stereo partly shown) [glucose]
- remaining activity at 10000 µM: 59%
